Results on nine molecules are retold here after publication PMC11044217 (ACS Omega, 2024).

Data set [1] has as its target hAChE (Homo sapiens, UniProt P22303). The experiment in a line: hAChE inhibition, Ellman's colorimetric method. Type of data set: biochemical. On the technique in general: Ellman's reagent forms a yellow product with free thiols.
The target in data set [2] is hBChE (Homo sapiens, UniProt P06276). The experiment in a line: hBChE inhibition, Ellman's colorimetric method. Type of data set: biochemical. The conditions noted are these: IC50 ± SEM hBChE, n = 3.
Sequence of hBChE (P06276 29-602): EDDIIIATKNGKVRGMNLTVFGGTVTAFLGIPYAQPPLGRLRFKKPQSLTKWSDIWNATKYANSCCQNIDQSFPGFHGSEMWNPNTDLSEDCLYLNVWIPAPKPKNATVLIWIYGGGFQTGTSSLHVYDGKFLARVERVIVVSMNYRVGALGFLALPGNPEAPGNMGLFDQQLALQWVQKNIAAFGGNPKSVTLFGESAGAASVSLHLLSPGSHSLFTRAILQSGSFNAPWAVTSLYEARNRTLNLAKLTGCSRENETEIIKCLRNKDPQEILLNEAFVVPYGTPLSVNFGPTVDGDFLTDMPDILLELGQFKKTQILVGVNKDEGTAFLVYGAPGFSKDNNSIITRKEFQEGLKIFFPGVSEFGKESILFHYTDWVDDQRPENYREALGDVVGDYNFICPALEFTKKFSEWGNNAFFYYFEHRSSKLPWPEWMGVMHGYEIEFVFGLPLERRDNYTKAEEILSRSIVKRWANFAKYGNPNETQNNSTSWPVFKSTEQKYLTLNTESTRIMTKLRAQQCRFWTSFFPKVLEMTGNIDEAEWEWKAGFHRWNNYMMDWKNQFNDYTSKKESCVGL
The target in data set [3] is hBACE-1 (Homo sapiens, UniProt P56817). The experiment in a line: BACE-1 inhibition, FRET-based fluorometric assay. It counts as biochemical.
Sequence of hBACE-1 (P56817 46-501): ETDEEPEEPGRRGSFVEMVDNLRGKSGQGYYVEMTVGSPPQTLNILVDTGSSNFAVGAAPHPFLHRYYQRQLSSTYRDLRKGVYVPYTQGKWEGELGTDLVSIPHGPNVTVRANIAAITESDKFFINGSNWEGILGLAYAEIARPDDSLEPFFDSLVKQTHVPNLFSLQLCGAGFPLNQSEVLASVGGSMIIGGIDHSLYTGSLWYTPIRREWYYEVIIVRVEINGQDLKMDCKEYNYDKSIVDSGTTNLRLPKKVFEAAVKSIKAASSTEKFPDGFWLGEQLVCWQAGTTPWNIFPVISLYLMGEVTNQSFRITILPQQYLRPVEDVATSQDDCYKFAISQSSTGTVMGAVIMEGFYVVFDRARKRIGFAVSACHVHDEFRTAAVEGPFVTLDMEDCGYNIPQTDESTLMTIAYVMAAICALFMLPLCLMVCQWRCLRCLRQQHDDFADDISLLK
Data set [4] is described as follows: DPPH radical scavenging assay. Conditions: in methanol. For orientation: The DPPH test is a chemical assay of radical scavenging.
In data set [5] the target is PAS of hAChE (Homo sapiens, UniProt P22303). The experiment in a line: Propidium iodide displacement assay. It counts as binding. The conditions noted are these: for inhibition at 10 µM: read-out: (%) PAS-AChE propidium iodide displacement (% inhibition) at 10 μM; for inhibition at 50 µM: read-out: (%) PAS-AChE propidium iodide displacement (% inhibition) at 50 μM.
Sequence of PAS of hAChE (P22303 32-614): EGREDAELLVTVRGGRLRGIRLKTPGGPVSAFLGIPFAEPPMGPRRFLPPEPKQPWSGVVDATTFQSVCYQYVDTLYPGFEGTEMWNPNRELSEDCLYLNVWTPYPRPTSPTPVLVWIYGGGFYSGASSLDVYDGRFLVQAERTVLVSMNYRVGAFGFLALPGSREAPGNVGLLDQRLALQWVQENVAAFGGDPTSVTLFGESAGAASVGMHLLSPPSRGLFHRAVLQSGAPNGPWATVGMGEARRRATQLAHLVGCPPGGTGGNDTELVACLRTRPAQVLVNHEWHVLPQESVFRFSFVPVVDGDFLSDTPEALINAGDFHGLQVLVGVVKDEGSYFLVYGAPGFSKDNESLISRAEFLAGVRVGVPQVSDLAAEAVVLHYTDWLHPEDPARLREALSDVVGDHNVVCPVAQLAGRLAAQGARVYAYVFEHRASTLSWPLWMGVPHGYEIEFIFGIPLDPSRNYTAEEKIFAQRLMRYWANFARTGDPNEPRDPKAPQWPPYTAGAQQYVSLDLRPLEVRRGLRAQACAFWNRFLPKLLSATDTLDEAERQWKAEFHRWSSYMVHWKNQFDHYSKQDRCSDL
In data set [6] the test system is Swiss albino mice. The experiment in a line: Scopolamine-induced Y-maze test. Type of data set: in vivo. The conditions noted are these: scopolamine-induced cognitive dysfunction mice model, p < 0.001.
Data set [7] concerns the target T1, AChE (Mus musculus, UniProt P21836).
T1 sequence (P21836 32-614): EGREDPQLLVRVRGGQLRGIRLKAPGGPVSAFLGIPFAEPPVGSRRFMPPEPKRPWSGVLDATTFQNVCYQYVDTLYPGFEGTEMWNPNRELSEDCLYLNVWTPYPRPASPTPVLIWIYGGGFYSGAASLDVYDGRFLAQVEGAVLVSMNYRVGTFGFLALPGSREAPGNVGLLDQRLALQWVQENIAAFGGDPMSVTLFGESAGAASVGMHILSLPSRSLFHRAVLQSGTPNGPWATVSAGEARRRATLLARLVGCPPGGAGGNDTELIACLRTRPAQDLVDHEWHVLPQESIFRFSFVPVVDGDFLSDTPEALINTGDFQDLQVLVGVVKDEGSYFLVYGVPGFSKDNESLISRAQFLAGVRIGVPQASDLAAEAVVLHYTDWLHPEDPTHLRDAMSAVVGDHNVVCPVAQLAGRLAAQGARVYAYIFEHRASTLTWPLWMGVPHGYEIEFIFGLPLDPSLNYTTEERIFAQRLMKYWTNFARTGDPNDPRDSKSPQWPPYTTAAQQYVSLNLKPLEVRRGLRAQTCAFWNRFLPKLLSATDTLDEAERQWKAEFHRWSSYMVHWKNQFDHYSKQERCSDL
The experiment in a line: Ex vivo AChE level in hippocampal brain homogenate. The arrangement: species or system Swiss albino mice. Conditions: in comparison with scopolamine-treated group.

Data set [8] concerns catalase (CAT). The experiment in a line: Ex vivo catalase. Type of data set: in vivo, Swiss albino mice. The conditions noted are these: hippocampal brain homogenate.
Data set [9] in a line: in vitro. Conditions: pig, PAMPA, pH 7.4. Background: PAMPA measures passive passage across an artificial lipid membrane.

Sequence of hAChE (P22303 32-617 isoform P22303-2 limits assumed): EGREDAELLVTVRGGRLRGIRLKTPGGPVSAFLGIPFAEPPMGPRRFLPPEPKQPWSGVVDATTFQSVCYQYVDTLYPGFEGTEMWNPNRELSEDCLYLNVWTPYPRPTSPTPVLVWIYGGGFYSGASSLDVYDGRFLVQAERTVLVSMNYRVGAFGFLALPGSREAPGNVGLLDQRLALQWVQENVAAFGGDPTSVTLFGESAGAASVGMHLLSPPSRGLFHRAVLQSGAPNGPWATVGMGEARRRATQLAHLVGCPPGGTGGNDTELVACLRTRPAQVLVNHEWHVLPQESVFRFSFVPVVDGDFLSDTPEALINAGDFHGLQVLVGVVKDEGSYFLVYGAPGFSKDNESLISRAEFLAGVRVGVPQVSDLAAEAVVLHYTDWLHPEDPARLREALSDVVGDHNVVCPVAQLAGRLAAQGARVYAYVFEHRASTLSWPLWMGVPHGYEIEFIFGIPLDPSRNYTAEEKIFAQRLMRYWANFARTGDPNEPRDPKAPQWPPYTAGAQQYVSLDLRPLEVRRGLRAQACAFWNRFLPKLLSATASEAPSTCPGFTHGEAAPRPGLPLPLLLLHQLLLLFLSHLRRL

For orientation: IC50 means the concentration that inhibits the measured activity by half. Low values mean greater potency, high ones weaker potency. Regarding `c1ccc(-c2nnc(CN3CCN(c4ccccc4)CC3)o2)cc1` [5AA, 2-Phenyl-5-((4-phenylpiperazin-1-yl)methyl)-1,3,4-oxadiazole], the IC50 is 1.83 ± 0.076 µM in data set [1] and over 10 µM in [2].

Usually inhibition stands for the percentage by which the read-out fell short of the control. Take `c1ccc(CN2CCN(Cc3nnc(-c4ccccc4)o3)CC2)cc1` [5AB, 2-((4-Benzylpiperazin-1-yl)methyl)-5-phenyl-1,3,4-oxadiazole]: the results for the IC50 in [1], in data set [2] and in [3] were 1.79 ± 0.032 µM, over 10 µM and over 10 µM, respectively. Further, the “% RSA of DPPH ± SEM at 25 μM” value in [4] came to 42.24%. For the same molecule, the inhibition at 10 µM in [5] is 18.4 ± 1.07%. Moreover, the inhibition at 50 µM in [5] stood at 29.5 ± 1.33%.

As to `c1ccc(-c2nnc(CN3CCN(C(c4ccccc4)c4ccccc4)CC3)o2)cc1` [5AC, 2-((4-Benzhydrylpiperazin-1-yl)methyl)-5-phenyl-1,3,4-oxadiazole], the IC50 was determined as 3.15 ± 0.0202 µM in [1] and 5.62 ± 0.073 µM in data set [3].

In general, Papp refers to a coefficient for how fast a substance crosses the barrier. As for `c1ccc(-c2nnc(CN3CCN(c4ccccn4)CC3)o2)cc1` [5AD, 2-Phenyl-5-((4-(pyridin-2-yl)piperazin-1-yl)methyl)-1,3,4-oxadiazole], the IC50 in data set [1] was 0.103 ± 0.0172 µM; in [2], at least 10 µM; in [3], 1.34 ± 0.078 µM. Also, in [4], the “% RSA of DPPH ± SEM at 25 μM” value is reported as 44.35%. The learning and memory result in data set [6] is “significant improvement in learning and memory”. Besides, the “AChE level in hippocampal brain homogenate” value in [7] is listed as “decrease in AChE”. The “catalase (CAT) level in brain homogenate” value in data set [8] is “increase in catalase”. Moreover, in data set [9], the Papp came to 6.5 ± 0.072 ×10⁻⁶ cm/s.

Regarding `O=[N+]([O-])c1ccc(N2CCN(Cc3nnc(-c4ccccc4)o3)CC2)cc1` [5AF, 2-((4-(4-Nitrophenyl)piperazin-1-yl)methyl)-5-phenyl-1,3,4-oxadiazole], the IC50 in [1] was 1.87 ± 0.0441 µM; in data set [2], over 10 µM; in [3], 6.242 ± 0.03 µM.

For `Cc1ccc(N2CCN(Cc3nnc(-c4ccccc4)o3)CC2)cc1` [5AG, 2-Phenyl-5-((4-(p-tolyl)piperazin-1-yl)methyl)-1,3,4-oxadiazole], the IC50 in data set [1] was 2.59 ± 0.0169 µM; in data set [2], over 10 µM; in data set [3] it was 3.81 ± 0.039 µM. Further, the “% RSA of DPPH ± SEM at 25 μM” value in data set [4] is 36.30 ± 2.5%.

Take `COc1ccc(N2CCN(Cc3nnc(-c4ccccc4)o3)CC2)cc1` [5AH, 2-((4-(4-Methoxyphenyl)piperazin-1-yl)methyl)-5-phenyl-1,3,4-oxadiazole]: the IC50 is 1.48 ± 0.0719 µM in data set [1], over 10 µM in data set [2] and 1.685 ± 0.012 µM in data set [3]. Moreover, the “% RSA of DPPH ± SEM at 25 μM” value in [4] was determined as 38.78 ± 2.9%. For the same molecule, the inhibition at 10 µM in data set [5] came out at 19.2 ± 1.81%. Further, the inhibition at 50 µM in data set [5] is 26.7 ± 1.34%. In [9], this molecule showed a Papp of 5.8 ± 0.175 ×10⁻⁶ cm/s.

For the molecule `Cc1ccc(CN2CCN(Cc3nnc(-c4ccccc4)o3)CC2)cc1` [5AI, 2-((4-(4-Methylbenzyl)piperazin-1-yl)methyl)-5-phenyl-1,3,4-oxadiazole], the results for the IC50 in [1] and in data set [3] were 1.797 ± 0.0081 µM and 0.392 ± 0.021 µM, respectively. Also, the “% RSA of DPPH ± SEM at 25 μM” value in data set [4] is recorded as 36.24 ± 2.6%. In addition, in [5], the inhibition at 10 µM turned out to be 17.7 ± 1.26%.

With `O=C1O[C@H]([C@@H](O)CO)C(O)=C1O` [Ascorbic acid, reference compound], the “% RSA of DPPH ± SEM at 25 μM” value in [4] is given as 59.65 ± 2.3%.
